Data on 31 molecules can be found in patent US9585380B2, “SSAT mRNA translation repression and activation” (TEMPLE UNIVERSITY—Of The Commonwealth System of Higher …, priority 2011, dated 2017).

The subject of the test is SSAT translation. Briefly: Drug screening with mutant 6 SSAT-luciferase reporter construct in transfected HEK 293T cells. Format: cell-based, human. As to conditions: for inhibition at 10 µM / activation at 10 µM: Homo sapiens; for inhibition at 10 µM: 10 μM test compound, HEK 293T cells transfected with mutant 6 construct, luciferase signal twelve hours after treatment; for activation at 10 µM: 12 h; for activation at 10 µM / % Increase in SSAT Translation: procedure of Example 6 (10 μM, mutant 6 construct, HEK 293T), increase over basal SSAT translation. The method, then:
The mutant 6 chimeric construct of Example 4 (A424C; A426C; FIG. 18G) cloned into pLEX MCS plasmid was utilized in drug screening as follows. HEK 293T cells (ATCC) were grown in DMEM supplemented with 10% fetal bovine serum and antibiotics. The HEK 293T cells were transfected with the mutant 6/pLEX MCS plasmid using HTS-Jetpei transfection reagent (Polyplus Transfection, Illkirch, France). Transfected HEK293T cells were incubated overnight at 37° C. After 24 hours, cells transfected cells in 96-well plates used for screening were treated with 10 μM of test compound from a compound library in DMSO. Untreated cells were used as the negative control, and cells treated with 10 μM DENSPM comprised a positive control. The luciferase signaling in each plate was independently analyzed using a Glomax Luminometer (Promega Corp.) by comparing the signals against the controls twelve hours after treatment.
The procedure of Example 6 was followed, screening for compounds that increase SSAT translation. The agents listed in Table 11 were identified as increasing SSAT translation by at least 35% over basal SSAT translation.
(In a reporter assay the amount or activity of a reporter protein is the signal.)

SMILES strings stand for the structures. Counter-ions that a name gives are not always drawn.

As a reminder, the inhibition is the change of the read-out against control, counted positive when it falls. High values mean a response far below the control, low ones a response near the control. For the molecule `O=C1C=CC(=O)c2c1ccc1c2ccc2ccccc21` [Chrysene-1,4-quinone, chrysene-1,4-dione], the inhibition at 10 µM turned out to be 97.3%.
`CC(C)(C)c1ccc(C(O)CCCN2CCC(C(O)(c3ccccc3)c3ccccc3)CC2)cc1` (racemic) [Terfenadine, (RS)-1-(4-tert-butylphenyl)-4-{4-[hydroxy(diphenyl)methyl]piperidin-1-yl}-butan-1-ol]: testing at 10 µM gave an inhibition of 100%.
With `CC=C(C)C(=O)O[C@H]1[C@H](OC(C)=O)[C@@]2(CO)C(CC1(C)C)C1=CCC3[C@@]4(C)CC[C@H](O[C@@H]5O[C@H](C(=O)O)[C@@H](O[C@@H]6O[C@H](CO)[C@@H](O)[C@H](O)[C@H]6O)[C@H](O)[C@H]5O[C@@H]5O[C@H](CO)[C@@H](O)[C@H](O)[C@H]5O)[C@](C)(CO)C4CC[C@@]3(C)[C@]1(C)C[C@H]2O` (stereo partly drawn) [Beta-Escin, (3α,5β,14β,16α,21α,22α)-22-acetoxy-16,23,28-trihydroxy-1-{[(2Z)-2-methylbut-2-enoyl]oxy}olean-12-en-3-yl-α-D-gulopyranosyl-(1→2)-[a-L-mannopyranosyl-(1→4)]-β-D-allopyranosiduronic acid], testing at 10 µM gave an inhibition of 88.7%.
`C[C@]12CC[C@H]3C(=CCc4cc(O)ccc43)[C@@H]1CCC2=O` [Equilin] displayed an activation at 10 µM of 36%.
In turn, `c1ccc2[nH]c(-c3cscn3)nc2c1` [Tiabendazole] displayed an activation at 10 µM of 39%.
On the same count and under the same terms, to `Nc1ccc(/N=N/c2ccccc2)c(N)n1` [Phenazopyridine hydrochloride] belongs 41%.
Turning to `C[C@]12CC[C@H](O)C[C@H]1CC[C@@H]1[C@@H]2CC[C@]2(C)[C@@H](C3=CC(=O)OC3)CC[C@]12O` [Digitoxigenin, 3-β,14-dihydroxy-5-β,14-β-card-20(22)-enolide], the inhibition at 10 µM is 93.4%.
With `COc1ccc2cc(CCC(C)=O)ccc2c1` [Nabumetone], the activation at 10 µM is 59%.
Same read-out and setting: to `CN(C)CCOC(C)(c1ccccc1)c1ccccn1` (stereo not shown) [Doxylamine succinate] belongs 62%.
Consider `Cc1cc(/C=C/c2ccc3cc(N(C)C)ccc3[n+]2C)c(C)n1-c1ccccc1` [Pyrvinium pamoate, 2-[(E)-2-(2,5-dimethyl-1-phenylpyrrol-3-yl)ethenyl]-N,N,1-trimethylquinolin-1-ium-6-amine], for which testing at 10 µM gave an inhibition of 92.5%.
In the case of `Cc1c(O)c(=O)n(-c2ccccc2)n1C` [Antipyrine, 4-hydroxy], the “% Increase in SSAT Translation” value came to 41%.
Take `CC(=O)OCC(=O)[C@@]12N=C(C)O[C@@H]1C[C@H]1[C@@H]3CCC4=CC(=O)C=C[C@]4(C)[C@H]3[C@@H](O)C[C@@]12C` [Deflazacort]: the activation at 10 µM stood at 37%.
`CCCCCCCCCCCCCCCC[N+](C)(C)CCN(Cc1ccc(OC)cc1)c1ncccn1` [Thonzonium bromide, N-{2-[(4-Methoxybenzyl)(pyrimidin-2-yl)amino]ethyl}-N,N-dimethylhexadecan-1-aminium bromide] returned an inhibition at 10 µM of 99%.
Take `N=C(N)c1ccc(OCCCCCOc2ccc(C(=N)N)cc2)cc1` [Pentamidine isethionate]: the activation at 10 µM was determined as 36%.
In turn, `Nc1[nH]c(=O)ncc1F` [Flucytosine] came in with an activation at 10 µM of 35%.
The molecule `CN(C)CCOc1ccc(/C(=C(/CCCl)c2ccccc2)c2ccccc2)cc1` [Toremifene, 2-{4-[(1Z)-4-chloro-1,2-diphenyl-but-1-en-1-yl]phenoxy}-N,N-dimethylethanamine] yielded an inhibition at 10 µM of 86.3%.
Regarding `Fc1ccc(C(OCCN2CCN(CCCc3ccccc3)CC2)c2ccc(F)cc2)cc1` [Vanoxerine dihydrochloride, 1-[2-[bis(4-fluorophenyl)methoxy]ethyl]-4-(3-phenylpropyl)piperazine•(HCl)2], the inhibition at 10 µM is 96.9%.
The same measure, in the same setting: to `CCCCC(CC)CNC(=N)NC(=N)NCCCCCCNC(=N)NC(=N)NCC(CC)CCCC` (stereo not shown) [Alexidine dihydrochloride, 1,1′-Hexamethylene-bis[5-(2-ethylhexyl)biguanide] dihydrochloride] belongs 99.6%.
`Nc1nc(NC2CC2)c2ncn([C@H]3C=C[C@@H](CO)C3)c2n1` [Abacavir Sulfate] returned an activation at 10 µM of 36%.
Molecule `O=C1CCc2ccc(OCCCCN3CCN(c4cccc(Cl)c4Cl)CC3)cc2N1` [Aripiprazole, 7-{4-[4-(2,3-dichlorophenyl)piperazin-1-yl]butoxy}-3,4-dihydroquinolin-2(1H)-one] gave an inhibition at 10 µM of 92.7%.
Turning to `CCCCNc1ccc(C(=O)OCCN(C)C)cc1.Cl` [Tetracaïne hydrochloride], the “% Increase in SSAT Translation” value amounted to 40%.
For the molecule `CC(=O)O[C@H]1C[C@H](OC2[C@@H](O)C[C@H](O[C@H]3[C@@H](O)C[C@H](O[C@H]4CC[C@@]5(C)[C@H](CC[C@@H]6[C@@H]5C[C@@H](O)[C@]5(C)[C@@H](C7=CC(=O)OC7)CC[C@]65O)C4)O[C@@H]3C)O[C@@H]2C)O[C@H](C)[C@H]1O[C@@H]1O[C@H](CO)[C@@H](O)[C@H](O)[C@H]1O` (stereo partly drawn) [Lanatoside C, (3β,5β,12β)-3-{[β-D-glucopyranosyl-(1→4)-3-O-acetyl-2,6-dideoxy-β-D-ribo-hexopyranosyl-(1→4)-2,6-dideoxy-β-D-ribo-hexopyranosyl-(1→4)-2,6-dideoxy-β-D-ribo-hexopyranosyl]oxy}-12,14-dihydroxycard-20(22)-enolide], 10 µM produced 91.8% inhibition.
Turning to `C[C@@H]1O[C@@H](O[C@@H]2C=C3CC[C@@H]4[C@H](CC[C@]5(C)[C@@H](c6ccc(=O)oc6)CC[C@]45O)[C@@]3(C)CC2)[C@H](O)[C@H](O)[C@H]1O` [Proscillaridin A, (3β)-3-[(6-deoxy-α-L-mannopyranosyl)oxy]-14-hydroxybufa-4,20,22-trienolide], the inhibition at 10 µM stood at 94%.
As to `NCCNCCNCCNCCN` [Tetraethylenepentamine pentahydrochloride], the activation at 10 µM amounted to 60%.
Regarding `O=C1NCCN1CCN1CCC(c2cn(-c3ccc(F)cc3)c3ccc(Cl)cc23)CC1` [Sertindole, 1-[2-[4-[5-chloro-1-(4-fluorophenyl)-indol-3-yl]-1-piperidyl]ethyl]-imidazolidin-2-one], testing at 10 µM gave an inhibition of 99.8%.
The molecule `CCCCCCCCN[C@H](C)[C@@H](O)c1ccc(SC(C)C)cc1` (relative stereo) [Suloctidil, (R*,S*)-4-((1-methylethyl)thio)-alpha-(1-(octylamino)ethyl)benzene-methanol] gave an inhibition at 10 µM of 99.9%.
For `COc1ccc(CCN2CCC(Nc3nc4ccccc4n3Cc3ccc(F)cc3)CC2)cc1` [Astemizole, 1-[(4-fluorophenyl)methyl]-N-[1-[2-(4-methoxyphenyl)ethyl]-4-piperidyl]benzoimidazol-2-amine], the inhibition at 10 µM turned out to be 86.2%.
With `CCc1ccc(CCOc2ccc(CC3SC(=O)NC3=O)cc2)nc1` (stereo not shown) [Pioglitazone], the activation at 10 µM is 50%.
Take `C[C@H]1OC(OC2[C@@H](O)C[C@H](OC3[C@@H](O)CC(O[C@H]4CC[C@@]5(C)[C@H](CC[C@@H]6[C@@H]5C[C@@H](O)[C@]5(C)[C@@H](C7=CC(=O)OC7)CC[C@]65O)C4)O[C@@H]3C)O[C@@H]2C)C[C@H](O)C1O` (stereo in doubt) [Digoxin, 4-[(3S,5R,8R,9S,10S,12R,13S,14S)-3-[(2S,4S,5R,6R)-5-[(2S,4S,5R,6R)-5-[(2S,4S,5R,6R)-4,5-dihydroxy-6-methyl-oxan-2-yl]oxy-4-hydroxy-6-methyl-oxan-2-yl]oxy-4-hydroxy-6-methyl-oxan-2-yl]oxy-12,14-dihydroxy-10,13-dimethyl-1,2,3,4,5,6,7,8,9,11,12,15,16,17-tetradecahydrocyclopenta[a]phenanthren-17-yl]-5H-furan-2-one]: the inhibition at 10 µM was 93.9%.
The same measure, in the same setting: to `C=C1C(=O)O[C@H]2[C@H]1CC/C(C)=C/CC[C@@]1(C)O[C@@H]21` [Parthenolide, (1aR,7aS,10aS,10bS)-1a,5-dimethyl-8-methylene-2,3,6,7,7a,8,10a,10b-octahydrooxireno[9,10]cyclodeca [1,2-b]furan-9(1aH)-one] belongs 99.2%; to `O=C1NCN(c2ccccc2)C12CCN(CCCC(c1ccc(F)cc1)c1ccc(F)cc1)CC2` [Fluspirilen, 8-[4,4-Bis(4-fluorphenyl)butyl]-1-phenyl-1,3,8-triazaspiro[4,5] decan-4-on], 94.7%.
